From ChEMBL document CHEMBL4665641, “Lead optimization and efficacy evaluation of quinazoline-based BET family inhibitors for potential treatment of cancer and inflammatory diseases” (Bioorg Med Chem Lett, 2019)
Activity calls are given as the source filed them. The rule behind the calls is not given here.

Assays:
Mus musculus [1] = assay: (§1) Antiinflammatory activity in collagen/complete freund's adjuvant-induced arthritis DBA/1 mouse model assessed as IFN-gamma level in rear right paw at 50 mg/kg, po administered via gavage starting from day 21 to day 41 post collagen/CFA challenge and measured on day 42 measured per mg protein (reference value: 0.78 pg); type: functional; details: time 21 day
[2] = target: T1, Bromodomain-containing protein 4 (Homo sapiens, UniProt O60885); assay: Competitive binding affinity to human partial length BRD4 (BD1,2) (N44 to E460 residues) expressed in bacterial expression system by BROMOscan assay
Mus musculus [3] = assay: (§2) Antiarthritic activity in collagen/complete freund's adjuvant-induced arthritis DBA/1 mouse model assessed as reduction in histological damage of hind paw at 50 mg/kg, po administered via gavage starting from day 21 to day 41 post collagen/CFA challenge and measured on day 42 by hematoxylin-eosin staining based assay; type: functional, organism-based; details: time 21.0 day
Mus musculus [4] = assay: Antiarthritic activity in collagen/complete freund's adjuvant-induced arthritis DBA/1 mouse model assessed as reduction in inflammatory symptoms at 50 mg/kg, po administered via gavage once daily starting from day 21 to day 41 post collagen/CFA challenge and measured from day 13 to 42; type: functional, organism-based; details: time 21.0 day
[5] = Drug uptake in tumor tissue of CB17 SCID mouse xenografted with human Kasumi-1 cells at 10 mg/kg, po QD for 25 days and measured after 24 hrs post last dose; type: ADME, organism-based, Neoplasm; details: time 25 day, read-out: Drug uptake
Kasumi 1 [6] = assay: Antitumor activity against human Kasumi-1 cells xenografted in CB17 SCID mouse assessed as tumor volume at 40 mg/kg, po QD for 25 days (reference value: 2189 +/- 604 mm3); type: functional; details: time 25 day
[7] = Half life in CD-1 mouse at 10 mg/kg, po; type: ADME, organism-based; details: in vivo
Kasumi 1 [8] = assay: Antitumor activity against human Kasumi-1 cells xenografted in CB17 SCID mouse assessed as tumor weight at 10 mg/kg, po administered for 25 days (reference value: 2.57 +/- 0.27 g); type: functional; details: time 25 day
Mus musculus [9] = assay: as §1, with “VEGF” for “IFN-gamma”, “0.98” for “0.78”; type: functional; details: time 21 day
[10] = Half life in CD-1 mouse at 2 mg/kg, iv; type: ADME, organism-based; details: in vivo
Mus musculus [11] = assay: as §2, with “as” for “as reduction in histological damage of”, “paw histological score” for “paw”, “assay (reference value: 2.66 +/- 0.44 au)” for “assay”; type: functional; details: time 21 day
Kasumi 1 [12] = assay: Antitumor activity against human Kasumi-1 cells xenografted in CB17 SCID mouse assessed as tumor volume at 10 mg/kg, po QD for 29 days (reference value: 1734 +/- 220 mm3); type: functional; details: time 29 day
[13] = target: T2, Bromodomain testis-specific protein (Homo sapiens, UniProt Q58F21); assay: Binding affinity to human partial length BRDT (BD1,2) (N21 to E382 residues) expressed in bacterial expression system by BROMOscan assay
[14] = Cmax in CD-1 mouse at 2 mg/kg, iv measured after 5 mins; type: ADME, organism-based; design: route intravenous, dose 2 mg/kg; details: mouse, in vivo, 5 min
Kasumi 1 [15] = assay: Antiproliferative activity against human Kasumi-1 cells after 72 hrs by Celltiter-Glo assay; type: functional, cell-based; details: Kasumi 1, 72 h
[16] = Stability in human liver microsomes assessed as half life; type: ADME, Microsome
CYP3A4 = CYP3A4 (Homo sapiens, UniProt P08684); assay: Inhibition of human CYP3A4 at 10 uM using midazolam as substrate relative to control; type: ADME; details: probe midazolam
CYP3A4, sequence (P08684 whole entry): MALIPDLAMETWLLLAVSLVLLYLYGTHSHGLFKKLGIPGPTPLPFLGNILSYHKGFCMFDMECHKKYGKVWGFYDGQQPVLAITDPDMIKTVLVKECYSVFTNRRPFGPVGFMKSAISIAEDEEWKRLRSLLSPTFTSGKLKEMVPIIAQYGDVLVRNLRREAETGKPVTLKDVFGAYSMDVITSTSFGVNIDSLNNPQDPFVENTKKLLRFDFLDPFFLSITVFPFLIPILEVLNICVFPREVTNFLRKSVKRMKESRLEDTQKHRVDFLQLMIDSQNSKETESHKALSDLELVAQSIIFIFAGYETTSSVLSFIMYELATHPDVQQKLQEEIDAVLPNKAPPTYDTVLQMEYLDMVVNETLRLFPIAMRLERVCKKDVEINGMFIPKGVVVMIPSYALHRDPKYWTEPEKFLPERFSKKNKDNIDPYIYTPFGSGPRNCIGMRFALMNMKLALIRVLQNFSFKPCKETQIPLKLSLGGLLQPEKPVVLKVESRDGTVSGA

[17] = Apparent permeability across basolateral to apical side in human Caco2 cells; type: ADME, cell-based; details: caco-2
[18] = Toxicity in collagen/CFA induced arthritis DBA/1 mouse model assessed as body weight at 50 mg/kg, po administered via gavage starting from day 21 to day 41 post collagen/CFA challenge and measured on day 21 relative to initial weight (reference value: 94.96%); type: organism-based; details: in vivo, 504 h, time 21 day
[19] = target: T2, Bromodomain testis-specific protein; assay: Binding affinity to human partial length BRDT (BD1) (N21 to E137 residues) expressed in bacterial expression system by BROMOscan assay
Mus musculus [20] = assay: as §1, with “MCP-1” for “IFN-gamma”, “126.24” for “0.78”; type: functional; details: time 21 day
Kasumi 1 [21] = assay: Antitumor activity against human Kasumi-1 cells xenografted in CB17 SCID mouse assessed as tumor volume at 10 mg/kg, po QD for 25 days (reference value: 2189 +/- 604 mm3); type: functional; details: time 25 day
[22] = target: T1, Bromodomain-containing protein 4; assay: Binding affinity to human partial length BRD4 (BD1) (N44 to E168 residues) expressed in bacterial expression system by BROMOscan assay
Cytochrome P450 2C19 = Cytochrome P450 2C19 (Homo sapiens, UniProt P33261); assay: Inhibition of human CYP2C19 at 4.9 uM; type: ADME
Cytochrome P450 2C19, sequence (P33261 whole entry): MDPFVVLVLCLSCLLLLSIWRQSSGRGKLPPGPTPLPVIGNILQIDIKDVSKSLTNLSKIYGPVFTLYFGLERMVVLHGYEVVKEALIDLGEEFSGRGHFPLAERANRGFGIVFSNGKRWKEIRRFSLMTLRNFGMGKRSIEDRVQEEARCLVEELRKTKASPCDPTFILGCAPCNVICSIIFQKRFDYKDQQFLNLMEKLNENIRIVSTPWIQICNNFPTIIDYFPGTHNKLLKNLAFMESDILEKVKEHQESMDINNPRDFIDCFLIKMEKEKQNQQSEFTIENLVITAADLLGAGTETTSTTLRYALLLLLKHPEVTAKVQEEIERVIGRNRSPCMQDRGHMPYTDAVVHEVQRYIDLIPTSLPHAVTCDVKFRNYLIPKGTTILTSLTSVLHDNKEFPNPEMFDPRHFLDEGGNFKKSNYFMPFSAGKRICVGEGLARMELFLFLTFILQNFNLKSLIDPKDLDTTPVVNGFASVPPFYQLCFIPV

Mus musculus [23] = assay: as §1, with “IL-2” for “IFN-gamma”, “0.2” for “0.78”; type: functional; details: time 21 day
Kasumi 1 [24] = assay: Antitumor activity against human Kasumi-1 cells xenografted in CB17 SCID mouse assessed as tumor weight at 40 mg/kg, po QD for 25 days (reference value: 2.57 +/-0.27 g); type: functional; details: time 25 day
[25] = Drug metabolism in rat assessed as oxidised metabolite formation by MetID study analysis; type: ADME
[26] = AUC(0 to infinity) in CD-1 mouse at 2 mg/kg, iv; type: ADME, organism-based; design: time infinity, route intravenous, dose 2 mg/kg; details: mouse, in vivo
Mus musculus [27] = assay: as §1, with “M-CSF” for “IFN-gamma”, “3.49” for “0.78”; type: functional; details: time 21 day
[28] = target: Bromodomain-containing protein 2 (Homo sapiens, UniProt P25440); assay: Binding affinity to human partial length BRD2 (BD1) (K71 to N194 residues) expressed in bacterial expression system by BROMOscan assay
Bromodomain-containing protein 2, sequence (P25440 whole entry, the tested form may be a part): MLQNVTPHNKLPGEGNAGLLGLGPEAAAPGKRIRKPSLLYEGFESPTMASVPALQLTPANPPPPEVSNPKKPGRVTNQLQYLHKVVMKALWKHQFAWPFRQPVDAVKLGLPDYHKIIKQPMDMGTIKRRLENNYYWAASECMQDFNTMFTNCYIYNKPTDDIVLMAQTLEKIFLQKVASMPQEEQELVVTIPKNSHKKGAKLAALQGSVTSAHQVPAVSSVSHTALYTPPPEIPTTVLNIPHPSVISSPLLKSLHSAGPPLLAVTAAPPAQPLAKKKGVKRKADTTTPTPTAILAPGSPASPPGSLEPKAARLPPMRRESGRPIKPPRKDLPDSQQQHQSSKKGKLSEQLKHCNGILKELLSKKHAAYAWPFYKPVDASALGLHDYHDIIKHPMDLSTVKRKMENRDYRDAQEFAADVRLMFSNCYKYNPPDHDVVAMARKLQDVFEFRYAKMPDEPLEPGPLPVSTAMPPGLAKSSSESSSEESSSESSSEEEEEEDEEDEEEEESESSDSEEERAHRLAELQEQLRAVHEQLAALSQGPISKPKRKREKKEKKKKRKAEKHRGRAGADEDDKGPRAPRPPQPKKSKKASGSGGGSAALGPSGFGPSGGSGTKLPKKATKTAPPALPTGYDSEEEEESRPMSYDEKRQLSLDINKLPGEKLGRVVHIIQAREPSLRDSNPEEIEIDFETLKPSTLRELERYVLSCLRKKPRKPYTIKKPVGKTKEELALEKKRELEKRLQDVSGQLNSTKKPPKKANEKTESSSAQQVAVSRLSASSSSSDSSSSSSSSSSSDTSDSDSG

Kasumi 1 [29] = assay: Antitumor activity against human Kasumi-1 cells xenografted in CB17 SCID mouse assessed as inhibition of tumor growth at 10 mg/kg, po QD for 25 days; type: functional; details: Kasumi 1, po, 600 h, time 25 day, read-out: TGI
[30] = Cmax in CD-1 mouse at 10 mg/kg, po; type: ADME, organism-based; design: route oral, dose 10 mg/kg; details: CD-1, mouse, in vivo, read-out: Cmax
Mus musculus [31] = assay: as §1, with “TNF-alpha” for “IFN-gamma”, “0.88” for “0.78”; type: functional; details: time 21 day
Cytochrome P450 2C9 = Cytochrome P450 2C9 (Homo sapiens, UniProt P11712); assay: Inhibition of human CYP2C9 at […]; type: ADME; details: dose 2.1 µM
Cytochrome P450 2C9, sequence (P11712 whole entry): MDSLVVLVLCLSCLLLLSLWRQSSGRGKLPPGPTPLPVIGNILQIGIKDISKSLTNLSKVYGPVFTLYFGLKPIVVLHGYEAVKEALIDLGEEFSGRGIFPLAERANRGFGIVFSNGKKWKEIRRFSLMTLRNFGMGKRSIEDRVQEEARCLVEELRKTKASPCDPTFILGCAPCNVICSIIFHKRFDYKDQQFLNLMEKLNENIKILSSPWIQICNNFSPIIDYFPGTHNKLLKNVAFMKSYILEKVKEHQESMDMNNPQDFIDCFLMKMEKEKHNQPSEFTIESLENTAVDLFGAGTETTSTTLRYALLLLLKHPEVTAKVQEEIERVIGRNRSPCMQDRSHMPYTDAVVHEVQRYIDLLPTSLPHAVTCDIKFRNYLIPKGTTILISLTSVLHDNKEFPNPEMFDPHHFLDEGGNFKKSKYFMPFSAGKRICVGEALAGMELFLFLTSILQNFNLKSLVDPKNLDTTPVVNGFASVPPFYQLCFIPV

Mus musculus [32] = assay: as §1, with “IP-10” for “IFN-gamma”, “6.23” for “0.78”; type: functional; details: time 21 day
[33] = Volume of distribution at steady state in CD-1 mouse at 2 mg/kg, iv; type: ADME, organism-based; details: in vivo, read-out: Vdss
MV4-11 = assay: Cytotoxicity against human MV4-11 cells assessed as inhibition of cell viability; type: functional, cell-based
[34] = Stability in mouse liver microsomes assessed as half life; type: ADME, Microsome

Cc1noc(C)c1-c1ccc2nc(-c3cnn(CC(C)(C)O)c3)nc(N3CCOC[C@@H]3c3ccccc3)c2c1
Activity (Mus musculus [1]): 1.29 pg
Kd [2]: 0.07 µM
Activity (Mus musculus [3]): Active
Activity (Mus musculus [4]): Active
concentration at 600 h [5]: 56 ng/g
Activity (Kasumi 1 [6]): 66 mm3
half-life [7]: 1.7 h
Activity (Kasumi 1 [8]): 1.51 g
Activity (Mus musculus [9]): 1.6 pg
half-life [10]: 1.7 h
Activity (Mus musculus [11]): 0.5 a.u.
Activity (Kasumi 1 [12]): 1036 mm3
Kd [13]: 0.17 µM
Cmax [14]: 2337 ng/mL
IC50 (Kasumi 1 [15]): 0.22 µM
half-life [16]: 1.7 h
inhibition at 10 µM (CYP3A4): < 50%
Papp [17]: 18.4 10^-6 cm/s
Activity [18]: 101.92%
Kd [19]: 0.076 µM
Activity (Mus musculus [20]): 8.48 pg
Activity (Kasumi 1 [21]): 1303 mm3
Kd [22]: 0.017 µM
inhibition (INH) (Cytochrome P450 2C19): Active
Activity (Mus musculus [23]): 0.3 pg
Activity (Kasumi 1 [24]): 0.04 g
Drug metabolism [25]: Metabolite_Detected
AUC [26]: 5025 ng·h/mL
Activity (Mus musculus [27]): 2.89 pg
Kd [28]: 0.045 µM
inhibition in vivo at 10 mg/kg (Kasumi 1 [29]): 41.4%
Cmax [30]: 2160 ng/mL
Activity (Mus musculus [31]): 0.46 pg
INH (Cytochrome P450 2C9): Active
Activity (Mus musculus [32]): 0.92 pg
Vd [33]: 1.04 L/kg
IC50 (MV4-11): 0.94 µM
t1/2 [34]: 0.367 h
